Drawing on PubChem BioAssay (NCI), this text covers GI50 and TGI for nine compounds.

Values joined by “and” are separate entries in the source; they are usually repeats but may differ in a detail not shown here. Equal values may be shown once.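 The compound was tested at five concentrations on cells cultured in 96-well plates, with a 48-hour exposure period. At the GI50, growth is halved. TGI is the concentration that stops growth completely.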

Some test systems named below: UACC-62 melanoma; ACHN renal; IGROV1 ovarian; HCT-116 colon; NCI-H23 lung; NCI-H460 lung; SK-MEL-2 melanoma; CCRF-CEM leukemia; SF-268 CNS; NCI-H522 lung.
Common to all, as to assay: growth of human tumour cells (NCI), 48 h

As for `COc1ccc(-c2nc3sccn3c2-c2ccnc(NCCCNS(=O)(=O)c3ccc(F)cc3)n2)cc1`, the GI50 in the assay with UACC-62 melanoma was 0.752 µM; in the assay on ACHN renal it was 1.99 µM; with IGROV1 ovarian it was 3.27 µM; in the assay on HCT-116 colon, 3.19 µM; in the assay on NCI-H23 lung, 2.11 µM; in the assay on NCI-H460 lung, 2.78 µM. Also, the GI50 with SK-MEL-2 melanoma is 2.32 µM; in the assay with CCRF-CEM leukemia, 1.52 µM; with SF-268 CNS it was 3.05 µM; with NCI-H522 lung, 1.41 µM. The TGI with UACC-62 melanoma was 2.73 µM; with ACHN renal, 7.73 µM; in the assay with IGROV1 ovarian, above 100 µM; in the assay with HCT-116 colon, 24.4 µM; in the assay on NCI-H23 lung it was 5.5 µM; with NCI-H460 lung, 37.6 µM. Moreover, the TGI in the assay on SK-MEL-2 melanoma was 6.75 µM; with CCRF-CEM leukemia it was above 100 µM; in the assay on SF-268 CNS it was 48.3 µM; with NCI-H522 lung it was 6.34 µM.
With `COc1cc(-c2nn(-c3cccc(NC(=O)CCN4CCN(C)CC4)c3)cc2-c2ccncc2)ccc1Cl`, the GI50 in the assay on UACC-62 melanoma is 1.04 µM; with ACHN renal, 1.61 µM; in the assay with IGROV1 ovarian, 2.37 µM; in the assay on HCT-116 colon, 0.904 µM; with NCI-H23 lung, 2.38 µM; in the assay on NCI-H460 lung, 0.532 µM. The GI50 is 0.889 µM in the assay on SK-MEL-2 melanoma, 1.98 µM with CCRF-CEM leukemia, 1.43 µM in the assay on SF-268 CNS and 0.283 µM with NCI-H522 lung. Moreover, the TGI with UACC-62 melanoma turned out to be 2.66 µM; with ACHN renal, 10.7 µM; in the assay with IGROV1 ovarian it was 15.6 µM; in the assay with HCT-116 colon, 4.17 µM; with NCI-H23 lung, 10.4 µM; in the assay with NCI-H460 lung, 2.28 µM. The TGI was 2.55 µM with SK-MEL-2 melanoma, 6.85 µM in the assay on CCRF-CEM leukemia, 3.53 µM with SF-268 CNS and 1.08 µM in the assay with NCI-H522 lung.
Consider `O=c1[nH]c(SCc2ccccc2[N+](=O)[O-])nc2nc[nH]c12`, for which the TGI with UACC-62 melanoma, in the assay on ACHN renal, in the assay on IGROV1 ovarian, in the assay with HCT-116 colon, in the assay with NCI-H23 lung and in the assay on NCI-H460 lung was above 100 µM throughout. The TGI in the assay with SK-MEL-2 melanoma, in the assay on CCRF-CEM leukemia, in the assay with SF-268 CNS and in the assay with NCI-H522 lung was above 100 µM each time. For the same compound, the GI50 in the assay on CCRF-CEM leukemia is > 100 µM and 29.6 µM.
In the case of `CN1CCc2cc3c4cc2C1Cc1ccc(cc1)Oc1cc(ccc1O)CC1c2c(cc(O)c(c2O4)O3)CCN1C` (stereo not given), the TGI is 3.76 µM in the assay with UACC-62 melanoma; 20.7 µM in the assay with ACHN renal; 14.3 µM in the assay with IGROV1 ovarian; 3.19 µM in the assay with HCT-116 colon; 13.5 µM with NCI-H23 lung; 4.01 µM in the assay with NCI-H460 lung. Also, the TGI in the assay on SK-MEL-2 melanoma came out at 3.18 µM; with CCRF-CEM leukemia, 14 µM; in the assay on SF-268 CNS, 6.18 µM; in the assay on NCI-H522 lung, 11.1 µM.
Regarding `N#Cc1ccc(/C=C/C(=O)c2ccccc2)cc1`, the GI50 in the assay with UACC-62 melanoma is 13.5 µM and 14 µM; with ACHN renal it was 12.3 µM and 16.2 µM; in the assay with IGROV1 ovarian, 4.18 µM and 2.27 µM; in the assay on HCT-116 colon it was 1.51 µM and 1.72 µM; with NCI-H23 lung, 10.8 µM and 15.4 µM; with NCI-H460 lung, 14.5 µM and 8.35 µM. The GI50 in the assay on SK-MEL-2 melanoma is 18.9 µM and 18.8 µM; with CCRF-CEM leukemia it was 8.31 µM and 2.86 µM; with SF-268 CNS, 13.3 µM and 9.61 µM; in the assay with NCI-H522 lung it was 10.4 µM and 14.7 µM. The TGI with UACC-62 melanoma is 26.6 µM and 27.5 µM; in the assay with ACHN renal it was 24.8 µM and 29.8 µM; with IGROV1 ovarian, 14.6 µM and 5.58 µM; in the assay on HCT-116 colon, 3.17 µM; with NCI-H23 lung, 24.3 µM and 33.2 µM; in the assay on NCI-H460 lung, 28.9 µM and 22.4 µM. Besides, the TGI in the assay on SK-MEL-2 melanoma was 39.1 µM and 37.8 µM; in the assay with CCRF-CEM leukemia it was > 57 µM and 11.5 µM; with SF-268 CNS, 26.7 µM and 25.4 µM; in the assay on NCI-H522 lung, 22.4 µM and 31.5 µM.
For `COc1cc(/C=C/c2ccccn2)cc(OC)c1OC`, the TGI in the assay on UACC-62 melanoma, with ACHN renal, with IGROV1 ovarian, in the assay with HCT-116 colon, with NCI-H23 lung and in the assay with NCI-H460 lung was above 10 µM throughout. The TGI with SK-MEL-2 melanoma, in the assay with CCRF-CEM leukemia, in the assay on SF-268 CNS and with NCI-H522 lung was above 10 µM in each case.
Turning to `Fc1ccc(-c2c(-c3ccncc3)[nH]c3nccnc23)cc1`, the GI50 in the assay on UACC-62 melanoma was 6.33 µM; in the assay with ACHN renal, 3.05 µM; with IGROV1 ovarian, 16.2 µM; with HCT-116 colon, 6.39 µM; in the assay on NCI-H23 lung, above 17.4 µM; with NCI-H460 lung it was 7.11 µM. The GI50 with SK-MEL-2 melanoma is 13.6 µM; in the assay with CCRF-CEM leukemia it was 24.6 µM; with SF-268 CNS it was 10.9 µM; with NCI-H522 lung, above 11.1 µM. Moreover, the TGI in the assay with UACC-62 melanoma was above 25 µM; with ACHN renal, above 25 µM; with IGROV1 ovarian, above 25 µM; with HCT-116 colon it was above 22.1 µM; with NCI-H23 lung, above 25 µM; with NCI-H460 lung it was above 21.3 µM. The TGI in the assay with SK-MEL-2 melanoma was above 25 µM; with CCRF-CEM leukemia it was above 25 µM; in the assay on SF-268 CNS, above 25 µM; with NCI-H522 lung, above 21.6 µM.
Take `CNCCN(C)Cc1cn[nH]c1-c1ccc(OC2CC(OCCC3CCOCC3)C2)cc1` (stereo not given): the GI50 is 39.1 µM in the assay with UACC-62 melanoma; 64.6 µM in the assay on ACHN renal; 48.5 µM with IGROV1 ovarian; above 67.9 µM in the assay with HCT-116 colon; above 91.7 µM with NCI-H23 lung; 97.9 µM with NCI-H460 lung. The GI50 in the assay with SK-MEL-2 melanoma, with CCRF-CEM leukemia, in the assay on SF-268 CNS and with NCI-H522 lung was above 100 µM each time. The TGI with UACC-62 melanoma, with ACHN renal, in the assay on IGROV1 ovarian, in the assay on HCT-116 colon, in the assay on NCI-H23 lung and in the assay with NCI-H460 lung was above 100 µM in each case. For the same compound, the TGI with SK-MEL-2 melanoma, with CCRF-CEM leukemia, in the assay on SF-268 CNS and with NCI-H522 lung was above 100 µM throughout.
On to `O=C(/C=C/c1ccccc1)OCC1=C[C@@H](O)[C@@H]2C=CO[C@@H](OC3OC(CO)C(O)C(O)C3O)[C@H]12` (stereo not given in full), for which the TGI in the assay on UACC-62 melanoma, in the assay with ACHN renal, in the assay with IGROV1 ovarian, with HCT-116 colon, in the assay with NCI-H23 lung and in the assay on SK-MEL-2 melanoma was above 100 µM throughout. Moreover, the TGI in the assay with CCRF-CEM leukemia, in the assay with SF-268 CNS and in the assay on NCI-H522 lung was above 100 µM in each case.
